Measurements taken from patent US20080194585A1, “Fungicidal Pyrazine Derivatives” (priority 2005, published 2008).
Marks after values point to notes of the source that are not given here.

Experiments:
Rhizoctonia oryzae = assay: Test G: turf brown patch, preventive spray on creeping bent grass seedlings; details: for pest or weed control at 200 ppm: Waitea circinata, in Agrostis stolonifera, topical, 144 h, read-out: Test G disease control rating, 200 ppm
Experimental: (the causal agent of turf brown patch) and incubated in a saturated atmosphere at 27° C. for 24 h, and then moved to a growth chamber at 27° C. for 5 days, after which disease ratings were made.

Sclerotinia sclerotiorum = assay: Test C: cucumber white mold, preventive spray on cucumber seedlings; details: for pest or weed control at 200 ppm: Sclerotinia sclerotiorum, in Cucumis sativus, 168 h, read-out: Test C disease control rating, 200 ppm
fusarium graminearium = assay: Test I: wheat head scab, preventive spray on wheat seedlings; details: for pest or weed control at 200 ppm: Fusarium, in Triticum aestivum, topical, 192 h, read-out: Test I disease control rating, 200 ppm; for Test I disease control rating: 200 ppm
Experimental: (the causal agent of wheat head scab) and incubated in a saturated atmosphere at 20° C. for 72 h, and then moved to a growth chamber at 22° C. for 5 days, after which disease ratings were made.

Septoria nodorum = assay: Test H: wheat glum blotch, preventive spray on wheat seedlings; details: for pest or weed control at 200 ppm: Parastagonospora nodorum, in Triticum aestivum, topical, 168 h, read-out: Test H disease control rating, 200 ppm
Experimental: (the causal agent of wheat glum blotch) and incubated in a saturated atmosphere at 20° C. for 48 h, and then moved to a growth chamber at 22° C. for 5 days, after which disease ratings were made.

Pythium aphanidermatum = assay: Test A: bluegrass pythium blight, preventive spray on bluegrass seedlings; details: for pest or weed control at 200 ppm: Pythium aphanidermatum, 120 h, read-out: Test A disease control rating
Botrytis cinerea = assay: Test E: tomato botrytis, preventive spray on tomato seedlings; details: for pest or weed control at 200 ppm: Botrytis cinerea, in Solanum lycopersicum, topical, 72 h, read-out: Test E disease control rating
[1] = test system: Puccinia recondita f. sp. tritici; assay: Test K: wheat leaf rust, preventive spray on wheat seedlings; details: for pest or weed control at 200 ppm: Puccinia recondita, in Triticum aestivum, 192 h, read-out: Test K disease control rating
[2] = test system: Colletotrichum orbiculare; assay: Test B: cucumber Colletotrichum anthracnose, preventive spray on cucumber seedlings; details: for pest or weed control at 200 ppm: Colletotrichum orbiculare, in Cucumis sativus, 144 h, read-out: Test B disease control rating, 200 ppm
Phytophthora infestans = assay: whole plant or invertebrate; assay type: in vivo
Plasmopara viticola = assay: Test D: grape downy mildew, spray after inoculation of grape seedlings; assay type: in vivo; details: for pest or weed control at 200 ppm: Plasmopara viticola, 168 h, read-out: Test D disease control rating
Text: Upon removal, disease ratings were made. […] A dash (-) indicates no test results.

[3] = test system: Erysiphe graminis f. sp. tritici; assay: Test L: wheat powdery mildew, preventive spray on wheat seedlings; details: for pest or weed control at 200 ppm: Blumeria graminis, in Triticum aestivum, 168 h, read-out: Test L disease control rating, 200 ppm
Septoria tritici = assay: Test J: wheat leaf blotch, preventive spray on wheat seedlings; assay type: in vivo; details: 100 = 100% disease control, 0 = no control
Text: A dash (-) indicates no test results.

[4] = 200 ppm, 100 = 100% disease control, 0 = no control
[5] = 40 ppm (marked *), 100 = 100% disease control, 0 = no control

CC(C)Cn1c(-c2c(F)cccc2F)c(Cl)nc(-n2cccn2)c1=O [Compound 1, 5-Chloro-6-(2,6-difluorophenyl)-1-(2-methylpropyl)-3-(1H-pyrazol-1-yl)-2(1H)-pyrazinone]
pest or weed control at 200 ppm (Rhizoctonia oryzae): 78%
pest or weed control at 200 ppm (Sclerotinia sclerotiorum): 0%
pest or weed control at 200 ppm (fusarium graminearium): 0%
pest or weed control at 200 ppm (Septoria nodorum): 99%
pest or weed control at 200 ppm (Pythium aphanidermatum): 0%
pest or weed control at 200 ppm (Botrytis cinerea): 100%
pest or weed control at 200 ppm [1]: 99%
pest or weed control at 200 ppm [2]: 0%
pest or weed control at 200 ppm (Phytophthora infestans; Phytophthora infestans, in Solanum lycopersicum, topical, 144 h, read-out: Test F disease control rating): 0%
pest or weed control at 200 ppm (Plasmopara viticola; 200 ppm): 0%
pest or weed control at 200 ppm [3]: 93%

CC(C)Cn1c(-c2c(F)cccc2F)c(Cl)nc(C#N)c1=O [Compound 5, 6-Chloro-5-(2,6-difluorophenyl)-3,4-dihydro-4-(2-methylpropyl)-3-oxopyrazinecarbonitrile]
pest or weed control at 200 ppm (Rhizoctonia oryzae): 26%
pest or weed control at 200 ppm (Sclerotinia sclerotiorum): 0%
pest or weed control at 200 ppm (fusarium graminearium): 20%
pest or weed control at 200 ppm (Septoria nodorum): 0%
pest or weed control at 200 ppm (Pythium aphanidermatum): 71%
pest or weed control at 200 ppm (Botrytis cinerea): 71%
pest or weed control at 200 ppm [1]: 99%
pest or weed control at 200 ppm [2]: 33%
pest or weed control at 200 ppm (Plasmopara viticola; 200 ppm): 24%
pest or weed control at 200 ppm [3]: 97%

Cn1c(-c2ccccc2F)c(Cl)nc(-n2cncn2)c1=O [Compound 15]
Test G disease control rating (Rhizoctonia oryzae; 200 ppm): 0%
Test C disease control rating (Sclerotinia sclerotiorum; 200 ppm): 0%
Test I disease control rating (fusarium graminearium): 0%
Test H disease control rating (Septoria nodorum; 200 ppm): 0%
Test A disease control rating (Pythium aphanidermatum; 200 ppm): 0%
Test E disease control rating (Botrytis cinerea; 200 ppm): 0%
Test K disease control rating ([1]; 200 ppm): 0%
Test B disease control rating ([2]; 200 ppm): 0%
Test F disease control rating (Phytophthora infestans; 200 ppm): 0%
Test D disease control rating (Plasmopara viticola; 200 ppm): 0%
Test L disease control rating ([3]; 200 ppm): 0%

CC(C)Cn1c(-c2c(F)cccc2Cl)c(Cl)nc(-n2cccn2)c1=O [compound 9]
Test G disease control rating (Rhizoctonia oryzae; 200 ppm): 82%
Test C disease control rating (Sclerotinia sclerotiorum; 200 ppm): 98%
Test I disease control rating (fusarium graminearium): 80%
Test H disease control rating (Septoria nodorum; 200 ppm): 100%
Test A disease control rating (Pythium aphanidermatum; 200 ppm): 62%
Test E disease control rating (Botrytis cinerea; 200 ppm): 100%
Test K disease control rating ([1]; 200 ppm): 100%
Test B disease control rating ([2]; 200 ppm): 100%
Test F disease control rating (Phytophthora infestans; 200 ppm): 88%
Test D disease control rating (Plasmopara viticola; 200 ppm): 49%
Test L disease control rating ([3]; 200 ppm): 99%

Cn1c(-c2ccccc2F)c(Cl)nc(-n2cccn2)c1=O [compound 14]
Test G disease control rating (Rhizoctonia oryzae; 200 ppm): 0%
Test C disease control rating (Sclerotinia sclerotiorum; 200 ppm): 0%
Test I disease control rating (fusarium graminearium): 0%
Test H disease control rating (Septoria nodorum; 200 ppm): 0%
Test A disease control rating (Pythium aphanidermatum; 200 ppm): 0%
Test E disease control rating (Botrytis cinerea; 200 ppm): 79%
Test K disease control rating ([1]; 200 ppm): 0%
Test B disease control rating ([2]; 200 ppm): 0%
Test F disease control rating (Phytophthora infestans; 200 ppm): 27%
Test D disease control rating (Plasmopara viticola; 200 ppm): 0%
Test L disease control rating ([3]; 200 ppm): 21%

O=c1c(N2CCC=N2)nc(Cl)c(-c2c(F)cccc2F)n1CC1CC1 [compound 16]
Test G disease control rating (Rhizoctonia oryzae; 200 ppm): 0%
Test C disease control rating (Sclerotinia sclerotiorum; 200 ppm): 0%
Test I disease control rating (fusarium graminearium): 0%
Test H disease control rating (Septoria nodorum; 200 ppm): 0%
Test A disease control rating (Pythium aphanidermatum; 200 ppm): 0%
Test E disease control rating (Botrytis cinerea; 200 ppm): 99%
Test K disease control rating ([1]; 200 ppm): 68%
Test B disease control rating ([2]; 200 ppm): 0%
Test F disease control rating (Phytophthora infestans; 200 ppm): 84%
Test D disease control rating (Plasmopara viticola; 200 ppm): 8%
Test L disease control rating ([3]; 200 ppm): 26%

CCC(C)Cn1c(-c2c(F)cc(F)cc2F)c(Cl)nc(-n2cncn2)c1=O (stereo not drawn) [compound 20]
Test G disease control rating (Rhizoctonia oryzae; 200 ppm): 26%
Test C disease control rating (Sclerotinia sclerotiorum; 200 ppm): 0%
Test I disease control rating (fusarium graminearium): 0%
Test H disease control rating (Septoria nodorum; 200 ppm): 98%
Test A disease control rating (Pythium aphanidermatum; 200 ppm): 0%
Test E disease control rating (Botrytis cinerea; 200 ppm): 100%
Test K disease control rating ([1]; 200 ppm): 100%
Test B disease control rating ([2]; 200 ppm): 0%
Test F disease control rating (Phytophthora infestans; 200 ppm): 30%
Test D disease control rating (Plasmopara viticola; 200 ppm): 0%
Test L disease control rating ([3]; 200 ppm): 98%

CCC(C)Cn1c(-c2c(F)cccc2F)c(Cl)nc(C#N)c1=O (stereo not drawn) [compound 21]
Test G disease control rating (Rhizoctonia oryzae; 200 ppm): 31%
Test C disease control rating (Sclerotinia sclerotiorum; 200 ppm): 0%
Test I disease control rating (fusarium graminearium): 0%
Test H disease control rating (Septoria nodorum; 200 ppm): 0%
Test A disease control rating (Pythium aphanidermatum; 200 ppm): 0%
Test E disease control rating (Botrytis cinerea; 200 ppm): 99%
Test K disease control rating ([1]; 200 ppm): 96%
Test B disease control rating ([2]; 200 ppm): 0%
Test F disease control rating (Phytophthora infestans; 200 ppm): 0%
Test D disease control rating (Plasmopara viticola; 200 ppm): 15%
Test L disease control rating ([3]; 200 ppm): 96%

CC(C)Cn1c(-c2cccc(Cl)c2Cl)c(Cl)nc(-n2cncn2)c1=O [compound 39]
Test G disease control rating (Rhizoctonia oryzae; 200 ppm): 0%
Test C disease control rating (Sclerotinia sclerotiorum; 200 ppm): 0%
Test I disease control rating (fusarium graminearium): 0%
Test H disease control rating (Septoria nodorum; 200 ppm): 89%
Test A disease control rating (Pythium aphanidermatum; 200 ppm): 0%
Test E disease control rating (Botrytis cinerea; 200 ppm): 99%
Test K disease control rating ([1]; 200 ppm): 67%
Test B disease control rating ([2]; 200 ppm): 0%
Test F disease control rating (Phytophthora infestans; 200 ppm): 0%
Test D disease control rating (Plasmopara viticola; 200 ppm): 0%
Test L disease control rating ([3]; 200 ppm): 0%

CC(C)Cn1c(-c2c(Cl)cccc2Cl)c(Cl)nc(-n2cncn2)c1=O [compound 40]
Test G disease control rating (Rhizoctonia oryzae; 200 ppm): 65%
Test C disease control rating (Sclerotinia sclerotiorum; 200 ppm): 0%
Test I disease control rating (fusarium graminearium): 0%
Test H disease control rating (Septoria nodorum; 200 ppm): 99%
Test A disease control rating (Pythium aphanidermatum; 200 ppm): 0%
Test E disease control rating (Botrytis cinerea; 200 ppm): 100%
Test K disease control rating ([1]; 200 ppm): 99%
Test B disease control rating ([2]; 200 ppm): 0%
Test F disease control rating (Phytophthora infestans; 200 ppm): 0%
Test D disease control rating (Plasmopara viticola; 200 ppm): 0%
Test L disease control rating ([3]; 200 ppm): 21%

CC(C)Cn1c(-c2cccc3c2OCO3)c(Cl)nc(-n2cccn2)c1=O [compound 251]
Test J disease control rating (Septoria tritici; 200 ppm): 97%
Test G disease control rating (Rhizoctonia oryzae; [4]): 21%
Test C disease control rating (Sclerotinia sclerotiorum; [4]): 0%
Test H disease control rating (Septoria nodorum; [4]): 82%
Test A disease control rating (Pythium aphanidermatum; [4]): 0%
Test E disease control rating (Botrytis cinerea; [4]): 99%
Test K disease control rating [1, 4]: 17%
Test B disease control rating [2, 4]: 0%
Test F disease control rating (Phytophthora infestans; [4]): 0%
Test D disease control rating (Plasmopara viticola; [4]): 0%
Test L disease control rating [3, 4]: 0%

CC(C)Cn1c(-c2ccc3c(c2)OC(F)(F)O3)c(Cl)nc(-n2cccn2)c1=O [compound 252]
Test J disease control rating (Septoria tritici; 200 ppm): 53%
Test G disease control rating (Rhizoctonia oryzae; [4]): 0%
Test C disease control rating (Sclerotinia sclerotiorum; [4]): 0%
Test H disease control rating (Septoria nodorum; [4]): 0%
Test A disease control rating (Pythium aphanidermatum; [4]): 0%
Test E disease control rating (Botrytis cinerea; [4]): 0%
Test K disease control rating [1, 4]: 0%
Test B disease control rating [2, 4]: 0%
Test F disease control rating (Phytophthora infestans; [4]): 0%
Test D disease control rating (Plasmopara viticola; [4]): 0%
Test L disease control rating [3, 4]: 0%

CC(C)Cn1c(-c2cc3c(cc2Cl)OCO3)c(Cl)nc(-n2cccn2)c1=O [compound 253]
Test J disease control rating (Septoria tritici; 200 ppm): 66%
Test G disease control rating (Rhizoctonia oryzae; [4]): 0%
Test C disease control rating (Sclerotinia sclerotiorum; [4]): 0%
Test H disease control rating (Septoria nodorum; [4]): 0%
Test A disease control rating (Pythium aphanidermatum; [4]): 0%
Test E disease control rating (Botrytis cinerea; [4]): 0%
Test K disease control rating [1, 4]: 0%
Test B disease control rating [2, 4]: 0%
Test F disease control rating (Phytophthora infestans; [4]): 0%
Test D disease control rating (Plasmopara viticola; [4]): 0%
Test L disease control rating [3, 4]: 0%

Cc1cc(C)c(-c2c(Cl)nc(-n3cccn3)c(=O)n2CC(C)C)c(C)c1 [compound 254]
Test J disease control rating (Septoria tritici; 40 ppm (marked *)): 99* %
Test G disease control rating (Rhizoctonia oryzae; [5]): 41* %
Test C disease control rating (Sclerotinia sclerotiorum; [5]): 0* %
Test H disease control rating (Septoria nodorum; [5]): 0* %
Test A disease control rating (Pythium aphanidermatum; [5]): 0* %
Test E disease control rating (Botrytis cinerea; [5]): 94* %
Test K disease control rating [1, 5]: 59* %
Test B disease control rating [2, 5]: 0* %
Test F disease control rating (Phytophthora infestans; [5]): 0* %
Test D disease control rating (Plasmopara viticola; [5]): 0* %
Test L disease control rating [3, 5]: 54* %
